Source: patent US10912767B2, “Anthracycline prodrugs and methods of making and using the same” (THE REGENTS OF THE UNIVERSITY OF COLORADO, priority 2015, dated 2021)

Experiments:
[1] = tested on: orthotopic MDA-MB-231 human breast tumor xenografts; assay: In vivo mouse efficacy, tumor bioluminescence; design: species or system nude mice; settings: 4 mg/kg dox equivalent iv + 18-FDG ip, weekly x6
Procedure: (§1) For reconstitution for intravenous injection into mice, dry photodoxazolidine R═H (23 mg) was dissolved in 785 μL of DMSO for a final concentration of 34.5 mM, labeled “Drug Stock,” and stored dark at −20° C. Shortly before injection, the Drug Stock was thawed and 20-50 μL was transferred to a new tube. To this tube, 6 volumes (relative to the Drug Stock volume) of PEG-400 and 4 volumes of propylene glycol (PG) were added and the solution thoroughly mixed by vortexing. Immediately prior to injection, 9 volumes of saline (0.9% NaCl) was added to the DMSO/PEG/PG solution of photodoxazolidine and mixed by vortexing. […] Therefore, this formulation was used as prepared. This protocol produces a final formulation of 5% DMSO, 30% PEG-400, 20% PG, 45% saline. A standard injection of 100 μL of this formulation delivers 4 mg dox equivalent/kg body weight for a mouse weighing 0.025 kg.
(§2) Luciferase-positive MDA-MB-231 cells were maintained in MEM culture medium supplemented with 10% heat inactivated fetal bovine serum and 2% penicillin/streptomycin. Prior to injection, typsinized cell populations were counted with a Z1 Coulter Particle counter, centrifuged, and resuspended in Hank's Balanced Salt Solution (HBSS) at a concentration of 4.0×10^7 cells/mL. […] Body weight and tumor growth were measured regularly. Tumor growth was measured optically from the bioluminescence signal from injection of luciferin. […]

[2] = In vivo body weight change as indication of toxicity; design: species or system nude mice; settings: 4 mg/kg dox equivalent iv weekly x6; photodoxazolidine with 18-FDG ip
Procedure: as §1, §2

[3] = Solubility observed in irradiation solvent; assay type: physicochemical
Description: In order to investigate the photolysis of the drugs in a system amenable to cell culture use, a custom UV irradiation apparatus was constructed, consisting of 3 small blacklight fluorescent bulbs (Southern New England Ultraviolet Co., λmax=350 nm) set between two ring stands and suspended at a height of 11.5 cm. The bulbs' housing was reflective aluminum so as to direct as much UV irradiation as possible downward toward the plate. Upon installation in sterile cell culture hood, the power of the system was measured at approximately 6-7 mW using a Scientech laser power meter. Prior to experimentation, the hood and irradiation apparatus was sterilized with 254 nm germicidal UV irradiation overnight. Using this setup, 100 μM of 4,5-dimethoxy-2-nitrobenyl alcohol (DMNA), photodoxazolidine R═H, and glucose-PEG-photodoxazoldine were irradiated in individual wells of a 24-well plate. Initially, 50 μL of a DMSO stock was diluted with 950 μL of PBS and aliquots of 50 μL were removed at various times (0-180 min), mixing by pipetting each time. The timepoints were analyzed by HPLC (method 2) and plotted as fractional conversion versus time. […]
The measured quantum yield of 0.002 for photodoxazolidine R═H (above) was lower than expected, which raised the possibility that the presence of the anthraquinone ring complex in the prodrugs was inhibiting photocleavage by quenching the activated state. […]

In the case of COc1cc(COC(=O)N2COC3C(C)OC(OC4CC(O)(C(=O)CO)Cc5c(O)c6c(c(O)c54)C(=O)c4c(OC)cccc4C6=O)CC32)c([N+](=O)[O-])cc1OC (stereo not drawn) [Photodoxazolidine], the tumor bioluminescence [1] is reported as “significant reductions in tumor bioluminescence”, the body weight change [2] is reported as “no significant change” and the “solubility in PBS” value [3] is reported as “poor solubility”.
